The results in this text go back to patent publication US4016158A, “Cephalosporin derivatives” (Roussel-UCLAF, priority 1971, dated 1977).

Structures are written as SMILES. Values after ≈ are worked out from the molar mass of the structure shown. Read-outs that look alike come from different tables or passages of the source.

Data set [1] has as its system Pseudomonas. Kind of data set: MIC, diffusion method in gelose medium at pH 7 (Table I). Type of data set: cell-based. As to conditions: read-out: minimum concentration of inhibition. The protocol: (§1) The antibiotic activity was determined by the diffusion method in a gelose medium at a pH of 7. The following Table expresses the minimum concentration of inhibition in mcg/ml (CMl) for the products against different microbial strains.

Data set [2] concerns Escher. Coli UC 1261. The description is as above. The data set is classed as cell-based. As to conditions: Escherichia coli. The protocol:
as §1

Data set [3] relates to Strept. Fecalis 5432. Described as above. The data set is classed as cell-based. The protocol:
as §1

Data set [4] relates to Escher. Coli UC 1020. Described as above. Type of data set: cell-based. As to conditions: Escherichia coli. The protocol: as §1
Data set [5] relates to Bac. Subt. The description is as above. Type of data set: cell-based. The protocol: as §1
Data set [6] concerns Staph. aureus oxford U.C. 1061 P(+). Described as above. Type of data set: cell-based. As to conditions: Staphylococcus aureus. The method, then:
as §1

In data set [7] the test system is Staph. U.C. 1128 P(-). The description is as above. The data set is classed as cell-based. As to conditions: Staph. UC 1128, penicillin resistant, read-out: minimum concentration of inhibition. The method, then: as §1
Data set [8] concerns Strept. hemoly. Todd Hewitt. The data set is described as above. The data set is classed as cell-based. The method, then:
as §1

The nature of data set [9]: solubility. The data set is classed as physicochemical.
Data set [10] concerns Staphylococcus aureus 889. As to the kind of experiment: MIC (Table II). The data set is classed as cell-based. As to conditions: read-out: minimum inhibition concentration. The method, then:
as §1
(§2) Using the same procedure as in Table I, the minimum inhibition concentration in mcg/ml was determined against different microbial strains with L(-) cis 7-[D(-)-α-aminophenylacetamido]-3-isopropyl-3-cepheme-4-carboxylic acid (product A) of Example 9.

The test system of data set [11] is Staphylococcus aureus 9373. Kind of data set: MIC (Table II). As to conditions: read-out: minimum inhibition concentration. The data set is classed as cell-based. The method, then: as §1, §2
Data set [12] concerns Staphylococcus aureus 4546. As to the kind of experiment: MIC (Table II). The data set is classed as cell-based. As to conditions: read-out: minimum inhibition concentration. The method, then: as §1, §2
In data set [13] the test system is Staphylococcus aureus 9729. As to the kind of experiment: MIC (Table II). Type of data set: cell-based. As to conditions: read-out: minimum inhibition concentration. The method, then: as §1, §2
For data set [14], the system named is Staphylococcus aureus 9482. Kind of data set: MIC (Table II). The data set is classed as cell-based. As to conditions: read-out: minimum inhibition concentration. The method, then: as §1, §2
Data set [15] concerns Staphylococcus aureus A8P. Kind of data set: MIC (Table II). The data set is classed as cell-based. As to conditions: read-out: minimum inhibition concentration. The method, then:
as §1, §2

Data set [16] relates to certain gram negative bacteria, particularly coliform bacteria. As to the kind of experiment: antibacterial activity, statement.
In data set [17] the test system is gram positive bacteria such as staphylococci and streptococci. Kind of data set: antibacterial activity, statement. As to conditions: particularly penicillin resistant staphylococci.
[18] abbreviates: UC1261, Escher. Coli UC 1261, pH 7, read-out: minimum concentration of inhibition.
Setting [19] is: Strept. Fecalis 5432, pH 7, read-out: minimum concentration of inhibition.
The mark [20] stands for this setting: UC1020, Escher. Coli UC 1020, pH 7, read-out: minimum concentration of inhibition.
Setting [21] is: Bac. Subt., pH 7, read-out: minimum concentration of inhibition.
Setting [22] is: UC1061, Staph. aureus oxford UC 1061, penicillin sensitive, pH 7, read-out: minimum concentration of inhibition.
[23] abbreviates: Strept. hemoly. Todd Hewitt, pH 7, read-out: minimum concentration of inhibition.
[24] abbreviates: pH 7, read-out: minimum concentration of inhibition.

Consider `CC(C)C1=C(C(=O)O)N2C(=O)[C@@H](NC(=O)Cc3ccc([N+](=O)[O-])cc3)[C@H]2SC1` (relative stereo) [Example 6, DL cis 7-p-nitrophenylacetamido-3-isopropyl-3-cepheme-4-carboxylic acid], for which the MIC in data set [1] was greater than 200 µg/mL; in data set [2] (setting [18]) it was greater than 200 µg/mL; in [3] (setting [19]), greater than 40 µg/mL; in data set [4] (setting [20]) it was greater than 200 µg/mL; in data set [5] (setting [21]), 0.2 µg/mL (≈ 0.493 µM); in data set [6] (setting [22]), 0.4 µg/mL (≈ 0.987 µM). In addition, the values for the MIC in [7] and in data set [8] (setting [23]) were 2 µg/mL (≈ 4.93 µM) and 5 µg/mL (≈ 12.3 µM), respectively. Also, the solubility in ethanol entry in data set [9] is “slightly soluble”. Further, the solubility in water entry in data set [9] is reported as “insoluble”.

In the case of `CC(C)C1=C(C(=O)O)N2C(=O)[C@@H](NC(=O)Cc3ccc(N)cc3)[C@H]2SC1` (relative stereo) [Example 7, DL cis 7-p-aminophenylacetamido-3-isopropyl-3-cepheme-4-carboxylic acid], the MIC is greater than 200 µg/mL in [1]; greater than 200 µg/mL in data set [2] (setting [18]); greater than 40 µg/mL in data set [3] (setting [19]); greater than 200 µg/mL in data set [4] (setting [20]); 0.05 µg/mL (≈ 0.133 µM) in data set [5] (setting [21]); 2 µg/mL (≈ 5.33 µM) in data set [6] (setting [22]). For the same compound, in data set [8] (setting [23]), the MIC amounted to 10 µg/mL (≈ 26.6 µM). For the same compound, the solubility in chloroform result in [9] (chloroform) is recorded as “slightly soluble”. The solubility in ethanol result in [9] is reported as “slightly soluble”. In addition, the solubility in ether entry in data set [9] is on record as “insoluble”. Also, the solubility in water result in data set [9] was “slightly soluble”.

Turning to `CC(C)C1=C(C(=O)O)N2C(=O)[C@@H](NC(=O)Cc3cccs3)[C@H]2SC1` (relative stereo) [Example 8, DL cis 7-(2'-thienyl)-acetamido-3-isopropyl-3-cepheme-4-carboxylic acid], the MIC in data set [1] is greater than 200 µg/mL; in data set [2] (setting [18]), greater than 200 µg/mL; in data set [3] (setting [19]), greater than 40 µg/mL; in [4] (setting [20]) it was greater than 200 µg/mL; in data set [5] (setting [21]), 0.4 µg/mL (≈ 1.09 µM); in [6] (setting [22]), 2 µg/mL (≈ 5.46 µM). The MIC in [7] came to 5 µg/mL (≈ 13.6 µM); in [8] (setting [23]) it was 10 µg/mL (≈ 27.3 µM). The solubility in ethanol entry in data set [9] is “slightly soluble”. The solubility in methanol entry in data set [9] (methanol) is “soluble”. The solubility in water entry in [9] is “insoluble”.

As for `CC1=C(C(=O)O)N2C(=O)[C@@H](NC(=O)[C@H](N)c3ccccc3)[C@H]2SC1` [Cephalexin, reference compound], the MIC amounted to 20 µg/mL (≈ 57.6 µM) in data set [2] (UC1261, pH 7, read-out: minimum concentration of inhibition); 60 µg/mL (≈ 173 µM) in [3] (setting [24]); 20 µg/mL (≈ 57.6 µM) in data set [4] (UC1020, pH 7, read-out: minimum concentration of inhibition); 0.2 µg/mL (≈ 0.576 µM) in data set [5] (setting [24]); 2 µg/mL (≈ 5.76 µM) in data set [6] (UC1061, pH 7, read-out: minimum concentration of inhibition); 10 µg/mL (≈ 28.8 µM) in data set [7]. Further, the MIC in data set [8] (setting [24]) worked out at 10 µg/mL (≈ 28.8 µM); in [10] (Staphylococcus aureus, 889, 24 h), 5 µg/mL (≈ 14.4 µM); in [10] (Staphylococcus aureus, 889, 48 h) it was 10 µg/mL (≈ 28.8 µM); in [11] (Staphylococcus aureus, 9373, 24 h) it was 2 µg/mL (≈ 5.76 µM); in [11] (Staphylococcus aureus, 9373, 48 h) it was 3 µg/mL (≈ 8.64 µM); in data set [12] (Staphylococcus aureus, 4546, 24 h), 1 µg/mL (≈ 2.88 µM). In addition, the MIC was 3 µg/mL (≈ 8.64 µM) in [12] (Staphylococcus aureus, 4546, 48 h); 2 µg/mL (≈ 5.76 µM) in data set [13] (Staphylococcus aureus, 9729, 24 h); 3 µg/mL (≈ 8.64 µM) in [13] (Staphylococcus aureus, 9729, 48 h); 1 µg/mL (≈ 2.88 µM) in [14] (Staphylococcus aureus, 9482, 24 h); 1 µg/mL (≈ 2.88 µM) in data set [14] (Staphylococcus aureus, 9482, 48 h); 2 µg/mL (≈ 5.76 µM) in [15] (24 h). The MIC in [15] (48 h) stood at 5 µg/mL (≈ 14.4 µM).

For `N[C@@H](C(=O)N[C@@H]1C(=O)N2C(C(=O)O)=C(C3CCCC3)CS[C@H]12)c1ccccc1` [Example 10, L(+) 6R, 7R 7-[R(-)-α-aminophenylacetamido]-3-cyclopentyl-3-cepheme-4-carboxylicacid], the “activity against certain gram negative bacteria” value in data set [16] was “active”. The MIC in data set [3] (setting [19]) was found to be 20 µg/mL (≈ 49.8 µM); in [5] (setting [21]) it was 0.05 µg/mL (≈ 0.125 µM); in [6] (setting [22]), 0.4 µg/mL (≈ 0.996 µM); in [7], 1 µg/mL (≈ 2.49 µM); in [8] (setting [23]), 10 µg/mL (≈ 24.9 µM). For the same compound, the solubility in ethanol entry in [9] is listed as “slightly soluble”. In data set [9], the solubility in ether entry was “insoluble”. Besides, the solubility in water entry in [9] is reported as “slightly soluble”. In addition, the “activity against gram positive bacteria” value in data set [17] is on record as “active”.

For the compound `O=C(Cc1ccc([N+](=O)[O-])cc1)NC1C(=O)N2C(C(=O)O)=C(C3CCCC3)CSC12` (stereo not drawn) [Example 11, DL cis 7-p-nitrophenylacetamido-3-cyclopentyl-3-cepheme-4-carboxylic acid], the MIC in data set [3] (setting [19]) was greater than 40 µg/mL; in data set [5] (setting [21]), 0.1 µg/mL (≈ 0.232 µM); in data set [6] (setting [22]), 0.2 µg/mL (≈ 0.464 µM); in data set [7], 0.4 µg/mL (≈ 0.927 µM); in data set [8] (setting [23]), greater than 40 µg/mL. Also, the solubility in ethanol result in data set [9] was “slightly soluble”. In addition, the solubility in ether entry in [9] was “insoluble”. The solubility in water result in data set [9] was “insoluble”.

On to `Nc1ccc(CC(=O)NC2C(=O)N3C(C(=O)O)=C(C4CCCC4)CSC23)cc1` (stereo not drawn) [Example 12, DL cis 7-p-aminophenylacetamido-3-cyclopentyl-3-cepheme-4-carboxylic acid], for which, in data set [9], the solubility in ethanol result was “soluble”, the solubility in ether entry is “insoluble” and the solubility in water result is reported as “slightly soluble”.

Turning to `O=C(Cc1cccs1)NC1C(=O)N2C(C(=O)O)=C(C3CCCC3)CSC12` (stereo not drawn) [Example 13, DL cis 7-(2'-thienyl)-acetamido-3-cyclopentyl-3-cepheme-4-carboxylic acid], the MIC in data set [3] (setting [19]) was 20 µg/mL (≈ 51 µM); in [5] (setting [21]), 1 µg/mL (≈ 2.55 µM); in data set [6] (setting [22]), 1 µg/mL (≈ 2.55 µM); in data set [8] (setting [23]), greater than 40 µg/mL. Moreover, the solubility in ether entry in [9] is “insoluble”. Moreover, the solubility in water result in data set [9] was “slightly soluble”.
